Source: US10857209B2, “Lysosomal acid lipase and PPAR gamma ligands as immune therapies for cancer treatment” (Indiana University Research and Technology Corporation, priority 2016, dated 2020)

B1: hLAL: human lysosomal acid lipase expressed from a doxycycline-controlled tissue-specific transgene in lal−/− mice; never administered as a protein (protein)
chain: GPKPVVFLQHGLLADSSNWVTNLANSSLGFILADAGFDVWMGNSRGNTWSRKHKTLSVSQDEFWAFSYDEMAKYDLPASINFILNKTGQEQVYYVGHSQGTTIGFIAFSQIPELAKRIKMFFALGPVASVAFCTSPMAKLGRLPDHLIKDLFGDKEFLPQSAFLKWLGTHVCTHVILKELCGNLCFLLCGFNERNLNMSRVDVYTTHSPAGTSVQNMLHWSQAVKFQKFQAFDWGSSAKNYFHYNQSYPPTYNVKDMLVPTAVWSGGHDWLADVYDVNILLTQITNLVFHESIPEWEHLDFIWGLDAPWRLYNKIINLMRKYQ
modifications: left off: small tags and cut ends
notes: human lysosomal acid lipase expressed from a doxycycline-controlled tissue-specific transgene in lal−/− mice; never administered as a protein

Tests used:
[1] = system: B16 melanoma cells; assay: In vitro co-culture of pre-treated MDSCs and B16 melanoma cells; type: cell-based, mouse; conditions: lal−/− Ly6G+ cells pre-treated 20 μmol/L 24 hours; 72 hours co-culture; vs ethanol
Method: Ethanol or 20 μmol/L 9-HODE pre-treated (for 24 hours) MDSCs (5×10^5) and B16 melanoma cells (5×10^3) were mixed, and seeded into a well of 96-well plates in DMEM supplemented with 10% FBS. Seventy-two hours later, unattached MDSCs were removed by washing with PBS, and the number of attached B16 melanoma cells was counted. Morphologically, MDSCs are much smaller than B16 melanoma cells for exclusion.

[2] = system: Ly6G+CD11b+ cells; assay: Mitochondrial membrane potential (JC-1) in Ly6G+CD11b+ cells by flow cytometry; type: cell-based, mouse; conditions: lal−/− Ly6G+CD11b+ cells; 20 μmol/L, 48 hours; vs ethanol
Method: The reactive oxygen species (ROS) level and mitochondrial membrane potential in MDSCs was measured by flow cytometry. Briefly, bone marrow cells were first treated with or without 20 μmol/L 9-HODE or ethanol for 2 days. For ROS level detection, cells were harvested, washed, and stained with 2′,7′-dichlorofluorescein diacetate (2 μmol/L, Invitrogen), allophycocyanin cy7-conjugated anti-Ly6G Ab, and phycoerythrin cy7-conjugated anti-CD 11b Ab (eBioscience) at 37° C. for 15 minutes. After PBS wash, the ROS level in Ly6G^+CD11b^+ cells was analyzed using a LSRII machine (BD Biosciences).
For mitochondrial membrane potential measurement, cells were stained with the fluorescent dye JC-1 (2 μmol/L, Molecular Probes, Eugene, Oreg., USA), allophycocyanin cy7-conjugated anti-Ly6G antibody, and phycoerythrin cy7-conjugated anti-CD 11b antibody (eBioscience) at 37° C. for 15 minutes, and then analyzed for phycoerythrin (JC-1 red) and fluorescein isothiocyanate (JC-1 green) fluorescent cells in Ly6G^+CD11b^+ cells by flow cytometry. Cells treated with 50 μmol/L carbonyl cyanide 3-chlorophenylhydrazone for 5 minutes were served as a fluorescein isothiocyanate-positive control.

[3] = system: Ly6G+ MDSCs; assay: Transwell assay of MDSC transendothelial migration; type: cell-based, mouse; conditions: lal−/− Ly6G+ cells pre-treated 20 μmol/L 48 hours; four hours; vs ethanol
Method: Transwell assay was used to determine MDSC transendothelial migration. SVECs were added to the upper chamber of 24-well 8.0-μm-pore Transwell plates (Corning, Corning, N.Y., USA), and incubated at 37° C., 5% CO2 for 48 hours to form an EC monolayer. The supernatant was then removed, and CellTracker™ Green 5-Chloromethylfluorescein Diacetate (CMFDA) (Invitrogen, Grand Island, N.Y., USA)-labeled MDSCs (2×10^4 cells in 200 μL media) were added to the upper well. After 4 hours, transendothelial migration of MDSCs was determined by counting their numbers in the lower chamber under 5 random microscopic fields.

[4] = system: B16 melanoma cells; assay: Mouse tumor growth model, pre-treated MDSCs co-injected subcutaneously with B16 melanoma cells; type: in vivo
Method: For in vitro PPARγ ligand treatment, 9-HODE (Cayman Chemical Co., Ann Arbor, Mich., USA) was added into the culture medium of MDSCs to a final concentration of 20 μmol/L for 24 or 48 hours. For the study of the effect of PPARγ ligand on the mTOR signaling pathway, bone marrow cells were treated with 9-HODE (20 μmol/L) for 2 hours.
(§1) The tumor growth and metastasis model were described in Zhao et al., Oncogene. 2015; 34:1938-48. MDSCs and B16 melanoma cells were collected separately. A pilot study was performed to determine the best ratio between MDSCs and B16 melanoma cells. To test the tumor growth potential, 6×10^5 pre-treated MDSCs and 2×10^5 B16 melanoma cells were mixed, centrifuged and re-suspended in 100 μL PBS, and then injected subcutaneously into the flank region of 3-month old recipient lal^+/+ mice. Tumor volume (length×width^2×π/6) was monitored every week for 4 weeks. To test the metastasis potential, 2×10^6 pre-treated MDSCs and 5×10^5 B16 melanoma cells were mixed and incubated at 37° C., 5% CO2 for 30 minutes. After the incubation, cells were centrifuged, re-suspended, and injected intravenously into 3-month old lal^+/+ mice. Two weeks after the injection, the mice were sacrificed and the lungs were inflated with 4% paraformaldehyde for examination of metastasis.

[5] = system: B16 melanoma cells; assay: Mouse metastasis model, pre-treated MDSCs co-injected intravenously with B16 melanoma cells; type: in vivo; conditions: two weeks
Method: as §1
The harvested lungs were fixed with 4% paraformaldehyde in PBS at 4° C. for overnight. After fixation and embedding in paraffin, tissue sections were cut to 5 μm thick. Hematoxylin and eosin (H&E) staining and immunohistochemical (IHC) staining with anti-Ki67 antibody were performed by the Histological Core Facility, Department of Pathology and Laboratory Medicine, Indiana University. Images were taken by Olympus microscopy image system (Olympus, Tokyo, Japan).

[6] = system: cytokines and chemokines; assay: Cytokines and chemokines in BALF and plasma (ELISA) and lung (RT-PCR) of CCSP-Tg/KO mice; type: in vivo, mouse
Method: BALF was collected by 1 mL PBS. The expression levels of IL-6, GM-CSF, MCP-1 and TNFα in the BALF and plasma were measured using ELISA kits (BD Biosciences, San Jose, Calif.) according to the manufacturer's instructions.
Total RNAs were purified from lungs of lal^+/+, lal^−/− and CCSP-Tg/KO triple mice using RNeasy Mini Kits according to the manufacturer's instruction (Qiagen, Valencia, Calif., USA). Quantitative (q)RT-PCR was performed as described previously (Wu et al., Blood. 2012; 119:115-26). Analysis was performed by the 2^−ΔΔCT method. Primers of mIL-6, mIL-1β, mIL-10, mGM-CSF, mM-CSF, mTNF-α, mMCP-1, mCCL5 and GAPDH were used for real-time PCR.

[7] = pre-treated lal−/− Ly6G+ cells + B16 i.v.
[8] = doxycycline-treated CCSP-Tg/KO mice
[9] = doxycycline-treated vs untreated CCSP-Tg/KO mice

| Molecule | proliferation of B16 melanoma cells upon co-culture [1] | mitochondrial membrane potential [2] | Ly6G+ cells migrated across endothelial monolayer [3] | tumor size vs ethanol-treated lal−/− Ly6G+ cells ([4]; C57BL/6 Ly6G+ cells into C57BL/6 mice, 7, 14 and 21 days post-injection) | tumor volume ([4]; lal−/− Ly6G+ cells pre-treated 20 μmol/L 24 hours, co-injected s.c. with B16 cells into lal+/+ FVB/N mice, one week after injection, ethanol control 77.6±16.4) [mm^3] | B16 melanoma colonization in the lung ([5]; pre-treated lal+/+ Ly6G+ cells + B16 i.v.) | B16 melanoma colonies in the lungs ([5]; pre-treated lal−/− Ly6G+ cells + B16 i.v. into lal+/+ mice, vs ethanol) | Ki67 positive cells in lung sections (IHC staining) [5, 7] | neoplastic cells in lung sections (H&E staining) [5, 7] | lung GM-CSF mRNA level [6, 8] | lung mRNA levels of IL-6, MCP-1, TNFα, CCL5, IL-10 and IL-1β [6, 8] | IL-6, GM-CSF, MCP-1 and TNFα concentrations in BALF (ELISA) [6, 9] | IL-6, GM-CSF, MCP-1 and TNFα levels in the plasma [6, 9] |
| --- | --- | --- | --- | --- | --- | --- | --- | --- | --- | --- | --- | --- | --- |
| 9-hydroxyoctadecadienoic acid [9-HODE] | significantly decreased proliferation of B16 melanoma cells | partially recovered | less Ly6G^+ cells in the lower chamber | significantly smaller | 36.3±12.4 | did not affect B16 melanoma colonization in the lung | less B16 melanoma colonies | less Ki67 positive cells | less neoplastic cells |  |  |  |  |
| B1 |  |  |  |  |  |  |  |  |  | remained unchanged | significantly down-regulated | significantly decreased | similar |
